Reference: publication PMC8729770, “In Vitro Evaluation of Antimicrobial Peptides from the Black Soldier Fly (Hermetia Illucens) against a Selection of Human Pathogens” (Microbiology Spectrum, 2022)
Converted amounts (≈) assume the structure as drawn. Where two headings read alike, the source gives them in different places. Ends that are not written are not given here. Peptide text beside a SMILES is read from it.

Columns and labels:
P. aeruginosa ATCC 9027 = assay type: cell-based, Pseudomonas aeruginosa; conditions: for MBC P. aeruginosa ATCC 9027: plated on MHA, ≥3 log reduction vs growth control
Procedure: (§1) To detect antimicrobial activity of the BSF AMPs, the peptide library underwent screening against a panel of microorganisms, consisting of S. aureus ATCC 6538, E. coli ATCC 8739, P. aeruginosa ATCC 9027, C. albicans B59630, and A. fumigatus B42928. Serial dilutions of the peptides were prepared from the DMSO stock solutions in sterile demineralized water in 96-well plates using an automated liquid-handling workstation (Beckman Coulter Biomek 3000) in end volumes of 10 μL. The final in-plate concentration of DMSO was <1%. Peptide concentrations ranged from 64 μM to 0.25 μM for the first evaluation, and from 32 μM to 0.016 μM for the independent repeat. As references, doxycycline (Sigma-Aldrich; S. aureus, E. coli, P. aeruginosa), flucytosine (Sigma-Aldrich; C. albicans), and econazole (Sigma-Aldrich; A. fumigatus) were used. Suspensions of a starting inoculum of 5 × 10^3 CFU/mL (E. coli, S. aureus, C. albicans, A. fumigatus) and 5 × 10^4 CFU/mL (P. aeruginosa) were prepared in MHB (bacterial species) or RPMI medium (fungal species) and 190 μL was added to the 96-well plates. Plates were incubated for 16 h (E. coli, S. aureus, P. aeruginosa), 24 h (C. albicans), or 48 h (A. fumigatus) at 37°C. After incubation, read-out of the antimicrobial activity was performed using a resazurin assay. Then, 20 μL of a 0.01% (wt/vol) resazurin (Sigma-Aldrich) solution was added to each well and plates were incubated for 15 min (S. aureus), 30 min (E. coli), 45 min (P. aeruginosa), 4 h (C. albicans), or 17 h (A. fumigatus) to allow resazurin reduction to take place. Fluorescence was read using a microplate reader (Telix) at λexcitation = 550 nm and λemission = 590. […] MIC values were determined visually. Medium in the wells with no visual growth was plated on MHA to detect the MBC, defined as ≥3 log reduction compared with the growth control.

S. aureus ATCC 6538 = assay type: cell-based, Staphylococcus aureus; conditions: for MIC S. aureus ATCC 6538: determined visually, 16 h; for MBC S. aureus ATCC 6538: wells without visual growth plated on MHA, ≥3 log reduction vs growth control
Procedure: as §1

E. coli ATCC 8739 = assay type: cell-based, Escherichia coli
Procedure: as §1

[1] = repeat 1, 64-0.25 μM, determined visually, 16 h
[2] = repeat 2, 32-0.016 μM, determined visually, 16 h
[3] = repeat 2, plated on MHA, ≥3 log reduction vs growth control
[4] = repeat 1, plated on MHA, ≥3 log reduction vs growth control

Molecule | MIC P. aeruginosa ATCC 9027 (P. aeruginosa ATCC 9027; [1]) [µM] | MIC P. aeruginosa ATCC 9027 (P. aeruginosa ATCC 9027; [2]) [µM] | MIC S. aureus ATCC 6538 (S. aureus ATCC 6538; repeat 1, 64-0.25 μM) [µM] | MBC S. aureus ATCC 6538 (S. aureus ATCC 6538; repeat 1) | MIC S. aureus ATCC 6538 (S. aureus ATCC 6538; repeat 2, 32-0.016 μM) [µM] | MBC S. aureus ATCC 6538 (S. aureus ATCC 6538; repeat 2) | MIC E. coli ATCC 8739 (E. coli ATCC 8739; [1]) [µM] | MIC E. coli ATCC 8739 (E. coli ATCC 8739; [2]) [µM] | bactericidal or bacteriostatic mechanism (S. aureus ATCC 6538; MBC determination) | MIC P. aeruginosa ATCC 9027 (P. aeruginosa ATCC 9027; ATCC 9027, 16 h) [µM] | MBC P. aeruginosa ATCC 9027 (P. aeruginosa ATCC 9027; repeat 1) [µM] | MBC P. aeruginosa ATCC 9027 (P. aeruginosa ATCC 9027; repeat 2) [µM] | MBC E. coli ATCC 8739 (E. coli ATCC 8739; ATCC 8739, 16 h) [µM] | MIC E. coli ATCC 8739 (E. coli ATCC 8739; ATCC 8739, 16 h) [µM] | MBC E. coli ATCC 8739 (E. coli ATCC 8739; [3]) [µM] | MBC E. coli ATCC 8739 (E. coli ATCC 8739; [4]) [µM]
CC[C@H](C)[C@H](NC(=O)[C@H](CS)NC(=O)[C@H](Cc1c[nH]cn1)NC(=O)[C@H](C)NC(=O)[C@H](C)NC(=O)[C@H](CS)NC(=O)[C@H](C)NC(=O)[C@H](C)NC(=O)[C@H](Cc1c[nH]cn1)NC(=O)CNC(=O)[C@@H](NC(=O)[C@H](CCCCN)NC(=O)[C@H](Cc1ccccc1)NC(=O)[C@@H]1CCCN1C(=O)[C@H](CO)NC(=O)[C@H](CC(C)C)NC(=O)[C@H](CC(C)C)NC(=O)[C@H](CC(=O)O)NC(=O)[C@H](CS)NC(=O)[C@@H](NC(=O)[C@H](C)N)[C@@H](C)O)C(C)C)C(=O)N[C@@H](C)C(=O)N[C@@H](CCCNC(=N)N)C(=O)NCC(=O)N[C@@H](CCCCN)C(=O)N[C@@H](CCCNC(=N)N)C(=O)NCC(=O)NCC(=O)N[C@@H](Cc1c[nH]c2ccccc12)C(=O)N[C@@H](CS)C(=O)N[C@@H](CC(=O)O)C(=O)N[C@@H](CCCCN)C(=O)N[C@@H](CCCNC(=N)N)C(=O)N[C@@H](C)C(=O)N[C@H](C(=O)N[C@@H](CS)C(=O)N[C@@H](CC(N)=O)C(=O)N[C@@H](CS)C(=O)N[C@@H](CCCNC(=N)N)C(=O)N[C@@H](CCCCN)C(=O)O)C(C)C [Hill-Def2a] (H-ATCDLLSPFKVGHAACAAHCIARGKRGGWCDKRAVCNCRK-OH; N-terminus and C-terminus assumed) | > 64.00 | > 32.00 | 0.25 (≈ 1.07 µg/mL) | static | 2.00 (≈ 8.55 µg/mL) | static | > 64.00 | > 32.00 |  |  |  |  |  |  |  | 
CC[C@H](C)[C@H](NC(=O)[C@H](CS)NC(=O)[C@H](Cc1c[nH]cn1)NC(=O)[C@H](CC(C)C)NC(=O)[C@H](C)NC(=O)[C@H](CS)NC(=O)[C@H](C)NC(=O)[C@H](C)NC(=O)[C@H](Cc1c[nH]cn1)NC(=O)CNC(=O)[C@@H](NC(=O)[C@H](CCCCN)NC(=O)[C@H](Cc1ccccc1)NC(=O)[C@@H]1CCCN1C(=O)[C@H](CO)NC(=O)[C@H](CC(C)C)NC(=O)[C@H](CC(C)C)NC(=O)[C@H](CC(=O)O)NC(=O)[C@H](CS)NC(=O)[C@@H](NC(=O)[C@H](C)N)[C@@H](C)O)C(C)C)C(=O)N[C@@H](C)C(=O)N[C@@H](CC(C)C)C(=O)NCC(=O)N[C@@H](CCCNC(=N)N)C(=O)N[C@@H](CCCNC(=N)N)C(=O)NCC(=O)NCC(=O)N[C@@H](Cc1c[nH]c2ccccc12)C(=O)N[C@@H](CS)C(=O)N[C@@H](CC(=O)O)C(=O)NCC(=O)N[C@@H](CCCNC(=N)N)C(=O)N[C@@H](C)C(=O)N[C@H](C(=O)N[C@@H](CS)C(=O)N[C@@H](CC(N)=O)C(=O)N[C@@H](CS)C(=O)N[C@@H](CCCNC(=N)N)C(=O)N[C@@H](CCCNC(=N)N)C(=O)O)C(C)C [Hill-Def4] (H-ATCDLLSPFKVGHAACALHCIALGRRGGWCDGRAVCNCRR-OH; N-terminus and C-terminus assumed) | > 64.00 | > 32.00 | 1.00 (≈ 4.26 µg/mL) | static | 8.00 (≈ 34.1 µg/mL) | static | > 64.00 | > 32.00 | bacteriostatic |  |  |  |  |  |  | 
GWWKRVFKPVEKFGQRVRDAGIQGIEIAQQGANVLATARGGPPQQ-NH2 [Hill-Cec8] |  | 8.00 | > 64.00 |  | > 32.00 |  |  | 2.00 |  | 4.00 | 64.00 | 8.00 | 1.00 | 1.00 | 8.00 | 
GWWKRVFKPVEKFGQRVRDAGVQGIAIAQQGANVLATARGGPPQQ-NH2 [Hill-Cec2] | 4.00 | 2.00 | > 64.00 |  | > 32.00 |  | 1.00 | 2.00 |  |  | 16.00 | 2.00 |  |  | 2.00 | 1.00
GWWKRVFKPVEKLGQRVRDAGIQGLEIAQQGANVLATARGGPPQQ-NH2 [Hill-Cec3] | 4.00 | 2.00 | > 64.00 |  | > 32.00 |  | 1.00 | 0.50 |  |  | 16.00 | 2.00 |  |  | 32.00 | 1.00
